Data taken from publication PMC11478334, “Quaternized Curcumin Derivative—Synthesis, Physicochemical Characteristics, and Photocytotoxicity, Including Antibacterial Activity after Irradiation with Blue Light” (Molecules, 2024).

Key:
[1] = Singlet oxygen generation quantum yields, indirect method with DPBF or TTF; type: physicochemical
Method: Singlet oxygen generation quantum yield assessment constitutes a crucial measurement for the prospective photosensitizers applied in photodynamic therapy. For the singlet oxygen generation study, the indirect method was chosen with two different singlet oxygen quenchers—1,3-diphenylisobenzofuran (DPBF) and tetrathiafulvalene (TTF). Due to the partial overlapping of the DPBF band with the studied compounds’ bands in absorption spectra, a singlet oxygen formation assessment was also performed with TTF as a chemical singlet oxygen scavenger. The values obtained for new curcuminoids 2 and 3 were referenced to curcumin and ZnPc.
Singlet oxygen quantum yield measurements for 2, 3, and curcumin were assessed in dimethyl sulfoxide (DMSO; Fisher, Longborough, UK) and N,N-dimethylformamide (DMF; Fisher) at ambient temperature according to the comparative method protocols described previously. The method involves using chemical quenchers of singlet oxygen, 1,3-diphenylisobenzofuran (DPBF; Merck, Steinheim, Germany), tetrathiafulvalene (TTF; Aldrich, Steinheim, Germany), and an unsubstituted zinc(II) phthalocyanine (ZnPc; Aldrich) as a reference compound. The mixtures of curcumins and DPBF or TTF were irradiated with light adjusted to the maximum absorbance wavelength through the M250 monochromator (Optel, Opole, Poland). The changes in spectra under the irradiation were recorded with an OceanOptics Flame spectrophotometer equipped with a DT-MINI-2-GS light source. The singlet oxygen quantum yields were calculated using the previously presented equation [39, 73, 74, 75].

[2] = Aggregation studies by UV-vis serial dilution; type: physicochemical; conditions: in DMF
Method: The aggregation properties of the studied compounds were evaluated using statistical analysis of the UV–vis absorption spectra during serial dilution. […] This can be associated with the presence of a positive charge that prevents aggregation due to the repulsion of the same charges. […] According to the literature, DMSO can permeate into curcumin clusters and stabilize the non-aggregated molecules due to solvation.
The aggregation studies were performed at ambient temperature. Known amounts of 2, 3, and curcumin as a reference in volumetric flasks were dissolved in DMSO and DMF and left to stir overnight. Then, the solutions were diluted appropriately to achieve concentrations in the range between 1.5 × 10^−6 mol/dm^3 and 5.5 × 10^−5 mol/dm^3. The samples were then moved into quartz cuvettes (l = 10 mm, Hellma, Müllheim, Germany), and their spectra were recorded using a Shimadzu U-1900 spectrophotometer (Shimadzu, Kyoto, Japan). The recorded spectra and numerical data were then used for the determination of the dependence between the maximum peak absorption and the sample concentration according to the A = f(c) function, used further for statistical verification of the Lambert–Beer law.

[3] = test system: Aliivibrio fischeri; assay: Microtox acute toxicity test; type: cell-based; conditions: for acute toxicity / ecotoxicity verdict: tested at 1, 10 and 100 µM
Excerpt: All studied compounds were subjected to a Microtox acute toxicity test. The test is based on bioluminescent Aliivibrio fischeri bacteria, which are very sensitive to the presence of toxic substances. Changes in the toxicity of the environment surrounding the bacterium influence its respiratory processes and translate into the emitted bioluminescence intensity. Therefore, in contact with a toxic substance at a specific concentration, a linear decrease in luminescence is observed. Dimethylsulfoxide was used as a solubilizer of studied compounds in amounts not exceeding 1% v/v. To determine the effect of the solvent alone, 1% DMSO solution in water was also tested.
The acute toxicity of the tested curcumionoids was investigated on a Modern Water Microtox Model 500 apparatus equipped with Modern Water MicrotoxOmni 4.2 software, according to the 81.9% screening test procedure provided by the manufacturer (Modern Water, London, UK). All the reagents and solutions (Microtox Acute Reagent, Microtox Diluent, and Microtox Osmotic Adjusting Solution) were purchased from Tigret (Warsaw, Poland). Solutions of the tested compounds were prepared using DMSO and deionized water. […] Each compound was tested at three final concentrations (1 µM, 10 µM, and 100 µM) and at two time points: 5 min and 15 min. The change in the bacterial bioluminescence was monitored after the addition of the sample solution and compared to the negative control.

Row | Compound | singlet oxygen quantum yield ([1]; DPBF quencher, DMF) | singlet oxygen quantum yield ([1]; DPBF quencher, DMSO) | singlet oxygen quantum yield ([1]; TTF quencher, DMF) | singlet oxygen quantum yield ([1]; TTF quencher, DMSO) | aggregation [2] | decrease in A. fischeri bioluminescence ([3]; 100 µM) | effect on A. fischeri bioluminescence ([3]; lower concentrations (below 100 µM)) | singlet oxygen generation ΦΔ, estimated ([1]; natural curcumin, solvent not stated) | decrease in A. fischeri bioluminescence ([3]; 1 µM) | decrease in A. fischeri bioluminescence ([3]; 10 µM) | acute toxicity / ecotoxicity verdict [3] | singlet oxygen generation ΦΔ, reaching up to ([1]; TTF used, solvent not stated) | decrease in A. fischeri bioluminescence ([3]; 10 µM, after 5 min exposure)
1 | F[B-]1(F)OC(/C=C/c2ccc(OCCN3CCOCC3)cc2)=CC(/C=C/c2ccc(OCCN3CCOCC3)cc2)=[O+]1 [Compound 2] | <0.01 | 0.024 | <0.01 | <0.01 | strong aggregation | 45% | negligible | – | – | – | – | – | –
2 | Curcumin [reference compound] | – | – | 0.098 | 0.116 | strong aggregation | – | – | 0.04–0.1 | 0% | 99% | reveals ecotoxicity only at concentrations of 100 µM and 10 µM | – | –
3 | C[N+]1(CCOc2ccc(C=CC3=CC(C=Cc4ccc(OCC[N+]5(C)CCOCC5)cc4)=[O+][B-](F)(F)O3)cc2)CCOCC1 [Compound 3] | 0.026 | 0.046 | 0.084 | 0.057 | negligible | 99% | – | – | – | – | could be ecotoxic at concentrations of 10 µM and 100 µM | ≤ 0.1 | 53%
